Test results published in patent US6255098A, “DS11 (KCTC 0231BP), novel Bacillus sp. strain and novel phytase produced by it” (priority 1996, dated 2001).

Molecular target: T1, novel phytase produced by Bacillus sp. DS11 (KCTC 0231BP), N-terminal amino acid sequence SEQ ID NO: 1 (Bacillus sp., UniProt O66037)
T1 construct: made in house; host or cells: Bacillus sp; DS11 (KCTC 0231BP), native producer strain; enzyme purified from culture supernatant
Experiment: biochemical
Format: biochemical
Conditions: for enzyme activity with additive (Non-addition = 100): 30 min
Experimental: The potency of produced enzyme was measured as follows: By using a substrate, comprising 2 mM phytic acid sodium salts and 2 mM CaCl2 in 0.1 M Tris buffer solution (pH 7.0), the enzyme was reacted at 37° C. for 30 minutes to measure the amount of phosphoric acid generated. One unit of the enzymatic potency is equivalent to the enzymatic amount degrading 1 μ mol of inorganic phosphate per 1 minute. As a result of said measurement, the novel enzyme has the enzymatic potency of 0.3 unit per protein mg. The maximum amount of enzyme in fermentation yielding 0.6 unit/mg was obtained when 30 l of strains, a working volume, was charged to a 50 l fermenter and cultivated at 37° C. for 48 hours under the following conditions: air influx--0.8 vvm; stirring rate--150 rpm.
2 l of novel strain solution, cultivated according to the procedure as described in said Example, was centrifuged for 15 minutes. Then, the supernatant solution was saturated with 50% acetone to precipitate proteins and the crude enzyme solution passed through dialysis membrane was purified on a column containing phenyl sepharose CL-4B, Resource S and superose 12 HR 10/30 (all of which are manufactured by Pharmacia, Sweden) so as to isolate the phytase enzyme only. The analytical results by said column are represented in the attached drawing FIG. 2.

[1] = 0.5 h, pH 7, read-out: enzyme activity with additive (Non-addition = 100)

T1 sequence (O66037 31-383): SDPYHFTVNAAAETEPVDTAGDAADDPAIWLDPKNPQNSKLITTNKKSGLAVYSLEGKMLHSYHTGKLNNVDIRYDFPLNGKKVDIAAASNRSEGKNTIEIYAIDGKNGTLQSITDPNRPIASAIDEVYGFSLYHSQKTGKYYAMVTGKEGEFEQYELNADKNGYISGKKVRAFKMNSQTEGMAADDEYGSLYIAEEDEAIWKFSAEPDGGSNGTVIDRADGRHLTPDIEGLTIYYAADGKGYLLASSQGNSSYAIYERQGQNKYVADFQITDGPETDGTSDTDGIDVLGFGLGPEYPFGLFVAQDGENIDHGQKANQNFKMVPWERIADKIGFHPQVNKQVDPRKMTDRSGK

SMILES | enzyme activity with additive (Non-addition = 100) (additive concentration 1 mM) | enzyme activity with additive (Non-addition = 100) (additive concentration 5 mM) | inhibition of enzyme activity (in words) | remaining activity at 1000 µM [1] [%] | remaining activity at 5000 µM [1] [%]
O=S(=O)(F)Cc1ccccc1 [PMSF] | 86 | 88 | – | – | –
O=C(O)CN(CCN(CC(=O)O)CC(=O)O)CC(=O)O [EDTA] | – | – | inhibited the entire enzyme activity | 7.5 | 7.6
